Laboratory results published in ChEMBL document CHEMBL5329202, “New aryl-/heteroarylpiperazine derivatives of 1,7-dimethyl-8,9-diphenyl-4-azatricyclo[5.2.1.02,6]dec-8-ene-3,5,10-trione: Synthesis and preliminary studies of biological activities” (Bioorg Med Chem, 2023).

Key:
[1] = Selectivity index, ratio of IC50 for cytotoxicity against human HMEC-1 cells to IC50 for cytotoxicity against human K562 cells; format: toxicity, cell-based; conditions: HMEC-1 cells and K562 cells, read-out: Ratio IC50
HCT-116 [2] = assay: Induction of apoptosis in human HCT-116 cells assessed as viable cells at IC50 incubated for 72 hrs by Annexin V-FITC/PI staining based flow cytometric analysis (reference value: 90.5 %); format: functional
[3] = Selectivity index, ratio of IC50 for cytotoxicity against human HMEC-1 cells to IC50 for cytotoxicity against human A549 cells; format: toxicity, cell-based; conditions: HMEC-1 cells and A549 cells, read-out: Ratio IC50
[4] = Selectivity index, ratio of IC50 for cytotoxicity against human HMEC-1 cells to IC50 for cytotoxicity against human MDA-MB-231 cells; format: toxicity, cell-based; conditions: HMEC-1 cells and MDA-MB-231 cells, read-out: Ratio IC50
[5] = Selectivity index, ratio of IC50 for cytotoxicity against human HMEC-1 cells to IC50 for cytotoxicity against human SW480 cells
HMEC-1 [6] = assay: Induction of apoptosis in human HMEC-1 cells assessed as viable cells at IC50 incubated for 72 hrs by Annexin V-FITC/PI staining based flow cytometric analysis (reference value: 90.6 %); format: functional
HepG2 = assay: Cytotoxicity against human HepG2 cells assessed as cell growth inhibition measured after 72 hrs by MTT assay; format: functional, cell-based; conditions: HepG2, 72 h
K562 [7] = assay: Induction of apoptosis in human K562 cells assessed as early apoptotic cells at IC50 incubated for 72 hrs by Annexin V-FITC/PI staining based flow cytometric analysis (reference value: 1.3 %); format: functional
[8] = Cytotoxicity against human HMEC-1 cells assessed as cell growth inhibition measured after 72 hrs by MTT assay; format: toxicity, cell-based
HCT-116 [9] = assay: Cytotoxicity against human HCT-116 cells assessed as cell growth inhibition measured after 72 hrs by MTT assay; format: functional, cell-based; conditions: HCT-116, 72 h
[10] = biological target: T1, 5-hydroxytryptamine receptor 1A (Rattus norvegicus) (UniProt P19327); assay: Agonist activity at Sprague-Dawley rat hippocampal membrane 5-HT1A receptor assessed as stimulation of [35S]GTPgammaS binding by measuring maximal efficacy measured after 90 mins by scintillation counter analysis relative to control; format: functional, cell membranes; conditions: Hippocampus, filed as agonist
T1 sequence (whole entry): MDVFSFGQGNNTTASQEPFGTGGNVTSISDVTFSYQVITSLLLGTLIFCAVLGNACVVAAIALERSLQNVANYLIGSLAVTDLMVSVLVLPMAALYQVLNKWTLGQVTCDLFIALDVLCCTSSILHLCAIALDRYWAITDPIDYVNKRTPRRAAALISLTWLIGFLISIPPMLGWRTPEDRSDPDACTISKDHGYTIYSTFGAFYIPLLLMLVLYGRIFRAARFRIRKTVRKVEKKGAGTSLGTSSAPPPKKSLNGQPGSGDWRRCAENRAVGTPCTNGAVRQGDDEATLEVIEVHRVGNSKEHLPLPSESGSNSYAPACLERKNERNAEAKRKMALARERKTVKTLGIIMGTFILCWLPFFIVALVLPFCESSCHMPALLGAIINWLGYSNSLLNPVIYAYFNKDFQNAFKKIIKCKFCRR

K562 [11] = assay: Antiproliferative activity against human K562 cells assessed as reduction in cell number at IC50 measured after 72 hrs by trypan blue dye based assay relative to control; format: functional; set-up: scale not given: the % may be the effect or the level left
[12] = biological target: T2, 5-hydroxytryptamine receptor 1A (Rattus norvegicus, UniProt P19327); assay: Agonist activity at Sprague-Dawley rat hippocampal membrane 5-HT1A receptor assessed as stimulation of [35S]GTPgammaS binding measured after 90 mins by scintillation counter analysis; format: functional, cell membranes, Hippocampus
T2 sequence (P19327 whole entry): T1 sequence (whole entry)

HCT-116 [13] = assay: Induction of apoptosis in human HCT-116 cells assessed as late apoptotic cells at IC50 incubated for 72 hrs by Annexin V-FITC/PI staining based flow cytometric analysis (reference value: 1.6 %); format: functional
HMEC-1 [14] = assay: Induction of apoptosis in human HMEC-1 cells assessed as late apoptotic cells at IC50 incubated for 72 hrs by Annexin V-FITC/PI staining based flow cytometric analysis (reference value: 4.7 %); format: functional
MDA-MB-231 = assay: Cytotoxicity against human MDA-MB-231 cells assessed as cell growth inhibition measured after 72 hrs by MTT assay; format: functional, cell-based; conditions: MDA-MB-231, 72 h
K562 [15] = assay: Induction of apoptosis in human K562 cells assessed as increase in caspase-3/7 activity at IC50 incubated for 24 hrs by Glo assay relative to control; format: functional
[16] = Selectivity index, ratio of IC50 for cytotoxicity against human HMEC-1 cells to IC50 for cytotoxicity against human HepG2 cells; format: toxicity, cell-based; conditions: HMEC-1 cells and HepG2 cells, read-out: Ratio IC50
HMEC-1 [17] = assay: Induction of apoptosis in human HMEC-1 cells assessed as necrotic cells at IC50 incubated for 72 hrs by Annexin V-FITC/PI staining based flow cytometric analysis (reference value: 2.4 %); format: functional
PC-3 = assay: Cytotoxicity against human PC-3 cells assessed as cell growth inhibition measured after 72 hrs by MTT assay; format: functional, cell-based; conditions: PC-3, 72 h
Histamine H1 receptor = Histamine H1 receptor (Rattus norvegicus, UniProt P31390); assay: Displacement of [3H]pyrilamine from Sprague-Dawley rat H1 receptor assessed as inhibition constant measured after 30 mins by competitive binding assay
Chain of Histamine H1 receptor (P31390 whole entry): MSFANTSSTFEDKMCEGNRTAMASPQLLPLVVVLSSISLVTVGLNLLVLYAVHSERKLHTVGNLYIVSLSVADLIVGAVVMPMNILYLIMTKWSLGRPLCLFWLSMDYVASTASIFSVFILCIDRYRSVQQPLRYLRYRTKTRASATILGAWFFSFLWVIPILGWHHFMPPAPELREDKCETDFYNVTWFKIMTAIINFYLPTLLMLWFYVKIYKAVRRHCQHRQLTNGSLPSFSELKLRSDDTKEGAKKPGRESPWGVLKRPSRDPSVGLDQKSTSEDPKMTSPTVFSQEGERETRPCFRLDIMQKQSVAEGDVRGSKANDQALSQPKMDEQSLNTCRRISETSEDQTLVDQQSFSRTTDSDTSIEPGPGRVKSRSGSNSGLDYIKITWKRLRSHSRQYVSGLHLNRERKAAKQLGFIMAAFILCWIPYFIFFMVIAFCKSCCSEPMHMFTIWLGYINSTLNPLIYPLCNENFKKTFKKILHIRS

HMEC-1 [18] = assay: Induction of apoptosis in human HMEC-1 cells assessed as early apoptotic cells at IC50 incubated for 72 hrs by Annexin V-FITC/PI staining based flow cytometric analysis (reference value: 2.4 %); format: functional
K562 [19] = assay: Cytotoxicity against human K562 cells assessed as cell growth inhibition measured after 72 hrs by MTT assay; format: functional, cell-based; conditions: K562, 72 h
[20] = Selectivity index, ratio of IC50 for cytotoxicity against human HMEC-1 cells to IC50 for cytotoxicity against human PC-3 cells; format: toxicity, cell-based; conditions: HMEC-1 cells and PC-3 cells, read-out: Ratio IC50
D(2) dopamine receptor = D(2) dopamine receptor (Rattus norvegicus, UniProt P61169); assay: Antagonist activity at Sprague-Dawley rat striatum membrane D2 receptor assessed as inhibition of dopamine stimulated [35S]GTPgammaS binding measured after 90 mins by scintillation counter analysis; format: functional, cell membranes
Chain of D(2) dopamine receptor (P61169 whole entry): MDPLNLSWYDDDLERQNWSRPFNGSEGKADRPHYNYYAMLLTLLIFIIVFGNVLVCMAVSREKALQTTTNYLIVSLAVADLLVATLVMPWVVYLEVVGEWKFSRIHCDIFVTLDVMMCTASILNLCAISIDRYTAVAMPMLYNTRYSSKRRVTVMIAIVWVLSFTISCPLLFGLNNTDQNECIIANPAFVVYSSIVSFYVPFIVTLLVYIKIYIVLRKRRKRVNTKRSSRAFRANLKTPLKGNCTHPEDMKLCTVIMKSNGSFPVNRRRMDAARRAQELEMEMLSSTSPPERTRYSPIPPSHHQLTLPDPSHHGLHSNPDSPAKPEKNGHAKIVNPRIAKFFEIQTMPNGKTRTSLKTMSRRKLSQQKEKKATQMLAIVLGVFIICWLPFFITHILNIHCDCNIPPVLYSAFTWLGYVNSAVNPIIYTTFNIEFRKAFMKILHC

HCT-116 [21] = assay: Antiproliferative activity against human HCT-116 cells assessed as reduction in cell viability at IC50 measured after 72 hrs by trypan blue dye based assay relative to control; format: functional
A549 = assay: Cytotoxicity against human A549 cells assessed as cell growth inhibition measured after 72 hrs by MTT assay; format: functional, cell-based; conditions: A549, 72 h
HCT-116 [22] = assay: Induction of apoptosis in human HCT-116 cells assessed as early apoptotic cells at IC50 incubated for 72 hrs by Annexin V-FITC/PI staining based flow cytometric analysis (reference value: 7.8 %); format: functional
HCT-116 [23] = assay: Induction of apoptosis in human HCT-116 cells assessed as necrotic cells at IC50 incubated for 72 hrs by Annexin V-FITC/PI staining based flow cytometric analysis (reference value: 0.1 %); format: functional
K562 [24] = assay: Induction of apoptosis in human K562 cells assessed as late apoptotic cells at IC50 incubated for 72 hrs by Annexin V-FITC/PI staining based flow cytometric analysis (reference value: […]); format: functional
HMEC-1 [25] = assay: Antiproliferative activity against human HMEC-1 cells assessed as reduction in cell viability at IC50 measured after 72 hrs by trypan blue dye based assay relative to control; format: toxicity; conditions: hmec-1, 72 h

Row | Emax [10] [%] | EC50 [12] [µM] | Compound | selectivity ratio [1] | Activity (HCT-116 [2]) [%] | selectivity ratio [3] | selectivity ratio [4] | Ratio IC50 [5] | Activity (HMEC-1 [6]) [%] | IC50 (HepG2) [µM] | Activity (K562 [7]) [%] | IC50 at 72 h [8] [µM] | IC50 (HCT-116 [9]) [µM] | Activity (K562 [11]) [%] | Activity (HCT-116 [13]) [%] | Activity (HMEC-1 [14]) [%] | IC50 (MDA-MB-231) [µM] | Activity (K562 [15]) [%] | selectivity ratio [16] | Activity (HMEC-1 [17]) [%] | IC50 (PC-3) [µM] | other results
1 | 134 | 1.5 | CC12C(=O)C(C)(C(c3ccccc3)=C1c1ccccc1)C1C(=O)N(CCCCN3CCN(c4ncccn4)CC3)C(=O)C12 (stereo not drawn) | 3.78 | 37.4 | 1.69 | 1.64 | 1.93 | 91.7 | 16.7 | 4 | 30.5 | 4.63 | 64 | 4.1 | 2.4 | 18.7 | 22 | 1.83 | 1.3 | 20.4 | Ki (Histamine H1 receptor): 0.006 µM; Activity (HMEC-1 [18]): 4.6%; IC50 (K562 [19]): 8.08 µM; selectivity ratio [20]: 1.49; IC50 (D(2) dopamine receptor): 22.6 µM; Activity (HCT-116 [21]): 36%; IC50 (A549): 18.1 µM; Activity (HCT-116 [22]): 58.2%; Activity (HCT-116 [23]): 0.3%; Activity (K562 [24]): 11.7%; Activity (HMEC-1 [25]): Non-Toxic
2 | 162 | 0.6 | CC12C(=O)C(C)(C(c3ccccc3)=C1c1ccccc1)C1C(=O)N(CCCCN3CCN(c4cccc(Cl)c4)CC3)C(=O)C12 (stereo not drawn) | 5.01 | 81.5 | 0.86 | 0.54 | 2.64 | 86.8 | 14.1 | 5.2 | 21.9 | 6.19 | 82 | 2.5 | 7.8 | 40.6 | 74 | 1.55 | 2 | 8.61 | Ki (Histamine H1 receptor): 0.08 µM; Activity (HMEC-1 [18]): 3.5%; IC50 (K562 [19]): 4.38 µM; selectivity ratio [20]: 2.55; IC50 (D(2) dopamine receptor): 24.8 µM; Activity (HCT-116 [21]): 16%; IC50 (A549): 25.6 µM; Activity (HCT-116 [22]): 15.7%; Activity (HCT-116 [23]): 0.3%; Activity (K562 [24]): 25.4%; Activity (HMEC-1 [25]): Non-Toxic
3 | 168 | 0.7 | CC12C(=O)C(C)(C(c3ccccc3)=C1c1ccccc1)C1C(=O)N(CCCCN3CCN(c4ccccn4)CC3)C(=O)C12 (stereo not drawn) | 4.13 | 85.5 | 2.28 | 2.41 | 3.02 | 95.5 | 14.6 | 6.3 | 36.6 | 8.38 | 79 | 2.1 | 1.4 | 15.2 | 74 | 2.51 | 1.6 | 21.2 | Ki (Histamine H1 receptor): 0.6 µM; Activity (HMEC-1 [18]): 1.4%; IC50 (K562 [19]): 8.86 µM; selectivity ratio [20]: 1.73; IC50 (D(2) dopamine receptor): 50.3 µM; Activity (HCT-116 [21]): 17%; IC50 (A549): 16.1 µM; Activity (HCT-116 [22]): 12.1%; Activity (HCT-116 [23]): 0.4%; Activity (K562 [24]): 43.8%; Activity (HMEC-1 [25]): Non-Toxic
